Laboratory results taken from patent publication US9232799B2, “N-[(het)arylethyl)] pyrazole(thio)carboxamides and their heterosubstituted analogues” (BAYER INTELLECTUAL PROPERTY GMBH, priority 2010, dated 2016).

Experiments:
Alternaria solani = test: In vivo preventive test on Alternaria solani (tomato); details: 500 ppm of active ingredient, evaluated 7 days after inoculation
Source text: One day after this treatment, the plants are inoculated with an aqueous spore suspension of Alternaria solani.

[1] = logP by HPLC on reversed-phase column (C 18), EEC Directive 79/831 Annex V.A8; type: physicochemical
Description: In table 1, the logP values were determined in accordance with EEC Directive 79/831 Annex V.A8 by HPLC (High Performance Liquid Chromatography) on a reversed-phase column (C 18), using the method described below: Temperature: 40° C.; […]

aflatoxines production = test: microbe, parasite or virus in culture; type: cell-based, Aspergillus parasiticus; details: 50 μM
Fusarium graminearum = test: microbe, parasite or virus in culture; type: cell-based; details: 50 μM
Sphaerotheca fuliginea = test: In vivo preventive test on Sphaerotheca fuliginea (cucumber); details: 500 ppm of active ingredient, evaluated 7 days after inoculation
Source text: One day after this treatment, the plants are inoculated with an aqueous spore suspension of Sphaerotheca fuliginea.

Pyrenophora teres = test: In vivo preventive test on Pyrenophora teres (barley); details: 500 ppm of active ingredient, evaluated 7-9 days after inoculation
Source text: One day after this treatment, the plants are inoculated with an aqueous spore suspension of Pyrenophora teres.

CCC(CNC(=O)c1c(C(F)F)nn(C)c1Cl)c1ncc(C(F)(F)F)cc1Cl (stereo not drawn) [Example 193]
Efficacy (Alternaria solani): 100%
logP [1]: 3.73
% Inhibition of Aflatoxin at 50 μM (aflatoxines production): 100%
% Inhibition of fungal growth at 50 μM (Fusarium graminearum): 91%
Efficacy (Sphaerotheca fuliginea): 83%
Efficacy (Pyrenophora teres): 100%

CC(Cc1ccccc1Cl)NC(=S)c1c(C(F)F)nn(C)c1F (stereo not drawn) [Example 37]
Efficacy (Alternaria solani): 94%
logP [1]: 3.61
% Inhibition of Aflatoxin at 50 μM (aflatoxines production): 94%
% Inhibition of fungal growth at 50 μM (Fusarium graminearum): 78%
Efficacy (Sphaerotheca fuliginea): 98%
Efficacy (Pyrenophora teres): 100%

CC(Cc1ccccc1Cl)NC(=S)c1c(C(F)F)nn(C)c1Cl (stereo not drawn) [Example 38]
Efficacy (Alternaria solani): 89%
logP [1]: 3.72
Efficacy (Sphaerotheca fuliginea): 85%
Efficacy (Pyrenophora teres): 100%

Cn1nc(C(F)F)c(C(=O)NC(C)(C)Cc2ccc(Oc3ccccc3)cc2)c1Cl [Example 153]
Efficacy (Alternaria solani): 95%
logP [1]: 4.39
Efficacy (Sphaerotheca fuliginea): 93%
Efficacy (Pyrenophora teres): 80%

CC(Cc1ccccc1F)N(C(=S)c1c(C(F)F)nn(C)c1F)C1CC1 (stereo not drawn) [Example 21]
Efficacy (Alternaria solani): 95%
logP [1]: 4.01
Efficacy (Sphaerotheca fuliginea): 100%
Efficacy (Pyrenophora teres): 100%

Cn1nc(C(F)F)c(C(=S)NCCc2ccc(Cl)cc2Cl)c1F [Example 71]
Efficacy (Alternaria solani): 94%
logP [1]: 3.99
Efficacy (Sphaerotheca fuliginea): 85%
Efficacy (Pyrenophora teres): 100%

COC(CNC(=S)c1c(C(F)F)nn(C)c1F)c1cc(Cl)cc(Cl)c1 (stereo not drawn) [Example 110]
Efficacy (Alternaria solani): 80%
logP [1]: 4.19
Efficacy (Sphaerotheca fuliginea): 75%
Efficacy (Pyrenophora teres): 100%

CC(Cc1ccc(Oc2ccccc2)cc1)NC(=S)c1c(C(F)F)nn(C)c1F (stereo not drawn) [Example 156]
Efficacy (Alternaria solani): 89%
logP [1]: 4.29
Efficacy (Sphaerotheca fuliginea): 93%
Efficacy (Pyrenophora teres): 100%

Cn1nc(C(F)F)c(C(=O)NCCc2cccc(Cl)c2)c1Cl [Example 49]
Efficacy (Alternaria solani): 100%
logP [1]: 2.92
% Inhibition of Aflatoxin at 50 μM (aflatoxines production): 100%
% Inhibition of fungal growth at 50 μM (Fusarium graminearum): 91%
Efficacy (Pyrenophora teres): 94%

Cn1nc(C(F)F)c(C(=O)NCCc2ccccc2Cl)c1Cl [Example 34]
Efficacy (Alternaria solani): 100%
logP [1]: 2.88
% Inhibition of Aflatoxin at 50 μM (aflatoxines production): 100%
% Inhibition of fungal growth at 50 μM (Fusarium graminearum): 84%
Efficacy (Pyrenophora teres): 100%

CC(Cc1ccc(Oc2ccccc2)cc1)NC(=O)c1c(C(F)F)nn(C)c1Cl (stereo not drawn) [Example 154]
Efficacy (Alternaria solani): 100%
logP [1]: 3.83
% Inhibition of Aflatoxin at 50 μM (aflatoxines production): 99%
% Inhibition of fungal growth at 50 μM (Fusarium graminearum): 80%
Efficacy (Pyrenophora teres): 100%

CC(CNC(=O)c1c(C(F)F)nn(C)c1F)c1ccc(Cl)cc1Cl (stereo not drawn) [Example 84]
Efficacy (Alternaria solani): 95%
logP [1]: 3.46
% Inhibition of Aflatoxin at 50 μM (aflatoxines production): 100%
% Inhibition of fungal growth at 50 μM (Fusarium graminearum): 100%
Efficacy (Pyrenophora teres): 100%

CC(Cc1cccc(Oc2ccccc2)c1)NC(=O)c1c(C(F)F)nn(C)c1F (stereo not drawn) [Example 146]
Efficacy (Alternaria solani): 95%
logP [1]: 3.64
% Inhibition of Aflatoxin at 50 μM (aflatoxines production): 100%
% Inhibition of fungal growth at 50 μM (Fusarium graminearum): 83%
Efficacy (Pyrenophora teres): 100%

CN(CCc1ccc(C(C)(C)C)cc1)C(=O)c1c(C(F)F)nn(C)c1F [Example 138]
Efficacy (Alternaria solani): 100%
logP [1]: 3.78
% Inhibition of Aflatoxin at 50 μM (aflatoxines production): 100%
% Inhibition of fungal growth at 50 μM (Fusarium graminearum): 80%
Efficacy (Pyrenophora teres): 95%

CC(CNC(=O)c1c(C(F)F)nn(C)c1F)c1ccccc1Cl (stereo not drawn) [Example 39]
Efficacy (Alternaria solani): 100%
logP [1]: 2.94
% Inhibition of Aflatoxin at 50 μM (aflatoxines production): 100%
% Inhibition of fungal growth at 50 μM (Fusarium graminearum): 100%
Efficacy (Pyrenophora teres): 100%

Cn1nc(C(F)F)c(C(=O)NCC(c2cccs2)C(F)(F)F)c1Cl (stereo not drawn) [Example 162]
Efficacy (Alternaria solani): 100%
logP [1]: 2.92
% Inhibition of Aflatoxin at 50 μM (aflatoxines production): 98%
% Inhibition of fungal growth at 50 μM (Fusarium graminearum): 80%
Efficacy (Pyrenophora teres): 95%

CC(CNC(=O)c1c(C(F)F)nn(C)c1F)c1c(F)cccc1F (stereo not drawn) [Example 30]
Efficacy (Alternaria solani): 100%
logP [1]: 2.78
% Inhibition of Aflatoxin at 50 μM (aflatoxines production): 100%
% Inhibition of fungal growth at 50 μM (Fusarium graminearum): 98%
Efficacy (Pyrenophora teres): 100%

Cc1ccsc1CCNC(=O)c1c(C(F)F)nn(C)c1F [Example 164]
Efficacy (Alternaria solani): 95%
logP [1]: 2.49
% Inhibition of Aflatoxin at 50 μM (aflatoxines production): 100%
% Inhibition of fungal growth at 50 μM (Fusarium graminearum): 95%
Efficacy (Pyrenophora teres): 100%

CN(CCc1ccccc1C(F)(F)F)C(=O)c1c(C(F)F)nn(C)c1Cl [Example 124]
Efficacy (Alternaria solani): 100%
logP [1]: 3.13
% Inhibition of Aflatoxin at 50 μM (aflatoxines production): 100%
% Inhibition of fungal growth at 50 μM (Fusarium graminearum): 87%
Efficacy (Pyrenophora teres): 95%

CC(CNC(=O)c1c(C(F)F)nn(C)c1Cl)c1cccc(C(F)(F)F)c1 (stereo not drawn) [Example 125]
Efficacy (Alternaria solani): 95%
logP [1]: 3.35
% Inhibition of Aflatoxin at 50 μM (aflatoxines production): 99%
% Inhibition of fungal growth at 50 μM (Fusarium graminearum): 78%
Efficacy (Pyrenophora teres): 100%

Cn1nc(C(F)F)c(C(=O)NC2CCCCC2c2ccccc2)c1Cl (stereo not drawn) [Example 215]
Efficacy (Alternaria solani): 78%
logP [1]: 3.51
Efficacy (Sphaerotheca fuliginea): 93%
Efficacy (Pyrenophora teres): 100%

CC(CNC(=O)c1c(C(F)F)nn(C)c1Cl)c1ccc(Cl)cc1Cl (stereo not drawn) [Example 85]
Efficacy (Alternaria solani): 100%
logP [1]: 3.67
% Inhibition of Aflatoxin at 50 μM (aflatoxines production): 100%
% Inhibition of fungal growth at 50 μM (Fusarium graminearum): 100%
Efficacy (Pyrenophora teres): 100%

Cn1nc(C(F)F)c(C(=O)NCCc2cc(Cl)cc(Cl)c2)c1Cl [Example 105]
Efficacy (Alternaria solani): 95%
logP [1]: 3.42
% Inhibition of Aflatoxin at 50 μM (aflatoxines production): 100%
% Inhibition of fungal growth at 50 μM (Fusarium graminearum): 95%
Efficacy (Pyrenophora teres): 94%

Cc1ccsc1CCNC(=O)c1c(C(F)F)nn(C)c1Cl [Example 163]
Efficacy (Alternaria solani): 90%
logP [1]: 2.68
% Inhibition of Aflatoxin at 50 μM (aflatoxines production): 98%
% Inhibition of fungal growth at 50 μM (Fusarium graminearum): 80%
Efficacy (Pyrenophora teres): 95%

CC(CNC(=O)c1c(C(F)F)nn(C)c1F)c1ccc(C(F)(F)F)cc1 (stereo not drawn) [Example 127]
Efficacy (Alternaria solani): 100%
logP [1]: 3.25
% Inhibition of Aflatoxin at 50 μM (aflatoxines production): 100%
% Inhibition of fungal growth at 50 μM (Fusarium graminearum): 100%
Efficacy (Pyrenophora teres): 100%

Cn1nc(C(F)F)c(C(=O)NC(C)(C)Cc2ccc(Oc3ccccc3)cc2)c1F [Example 150]
Efficacy (Alternaria solani): 95%
logP [1]: 4.19
Efficacy (Sphaerotheca fuliginea): 100%
Efficacy (Pyrenophora teres): 78%

CCC(CNC(=O)c1c(C(F)F)nn(C)c1F)c1ncc(C(F)(F)F)cc1Cl (stereo not drawn) [Example 192]
Efficacy (Alternaria solani): 100%
logP [1]: 3.52
% Inhibition of Aflatoxin at 50 μM (aflatoxines production): 100%
% Inhibition of fungal growth at 50 μM (Fusarium graminearum): 100%
Efficacy (Pyrenophora teres): 100%

Cn1nc(C(F)F)c(C(=O)NCCc2ccccc2C(F)(F)F)c1F [Example 121]
Efficacy (Alternaria solani): 95%
logP [1]: 2.92
% Inhibition of Aflatoxin at 50 μM (aflatoxines production): 100%
% Inhibition of fungal growth at 50 μM (Fusarium graminearum): 100%
Efficacy (Pyrenophora teres): 100%

CC(c1ccccc1Cl)C(C)N(C(=O)c1c(C(F)F)nn(C)c1Cl)C1CC1 (stereo not drawn) [Example 42]
Efficacy (Alternaria solani): 80%
logP [1]: 4.08
% Inhibition of Aflatoxin at 50 μM (aflatoxines production): 100%
% Inhibition of fungal growth at 50 μM (Fusarium graminearum): 84%
Efficacy (Pyrenophora teres): 100%

Cn1nc(C(F)F)c(C(=O)NCCc2cc(Cl)cc(Cl)c2)c1F [Example 103]
Efficacy (Alternaria solani): 90%
logP [1]: 3.25
% Inhibition of Aflatoxin at 50 μM (aflatoxines production): 100%
% Inhibition of fungal growth at 50 μM (Fusarium graminearum): 99%
Efficacy (Pyrenophora teres): 100%

Cn1nc(C(F)F)c(C(=O)NCCc2c(F)c(F)nc(F)c2F)c1F [Example 208]
Efficacy (Alternaria solani): 95%
logP [1]: 2.44
% Inhibition of Aflatoxin at 50 μM (aflatoxines production): 99%
% Inhibition of fungal growth at 50 μM (Fusarium graminearum): 100%
Efficacy (Pyrenophora teres): 100%

Cn1nc(C(F)F)c(C(=O)NCCc2ccsc2Br)c1Cl [Example 165]
Efficacy (Alternaria solani): 90%
logP [1]: 2.82
% Inhibition of Aflatoxin at 50 μM (aflatoxines production): 99%
% Inhibition of fungal growth at 50 μM (Fusarium graminearum): 81%
Efficacy (Pyrenophora teres): 95%

CC(CNC(=O)c1c(C(F)F)nn(C)c1F)c1cccc(Cl)c1 (stereo not drawn) [Example 51]
Efficacy (Alternaria solani): 100%
logP [1]: 3.02
% Inhibition of Aflatoxin at 50 μM (aflatoxines production): 100%
% Inhibition of fungal growth at 50 μM (Fusarium graminearum): 100%
Efficacy (Pyrenophora teres): 100%

Cn1nc(C(F)F)c(C(=O)N(C2CC2)C2CCCCC2c2ccc(Cl)cc2Cl)c1F (stereo not drawn) [Example 217]
logP [1]: 5.05
Efficacy (Sphaerotheca fuliginea): 99%

CC(Cc1ccc(Cl)cc1Cl)NC(=S)c1c(C(F)F)nn(C)c1Cl (stereo not drawn) [Example 69]
Efficacy (Alternaria solani): 94%
logP [1]: 4.29
% Inhibition of Aflatoxin at 50 μM (aflatoxines production): 100%
% Inhibition of fungal growth at 50 μM (Fusarium graminearum): 86%
Efficacy (Sphaerotheca fuliginea): 95%

Cn1nc(C(F)F)c(C(=O)NCCc2ncc(C(F)(F)F)cc2Cl)c1Cl [Example 191]
Efficacy (Alternaria solani): 94%
logP [1]: 2.97
% Inhibition of Aflatoxin at 50 μM (aflatoxines production): 100%
% Inhibition of fungal growth at 50 μM (Fusarium graminearum): 100%
Efficacy (Pyrenophora teres): 100%

Cn1nc(C(F)F)c(C(=O)NCCc2c(Cl)cccc2Cl)c1Cl [Example 118]
Efficacy (Alternaria solani): 90%
logP [1]: 3.21
% Inhibition of Aflatoxin at 50 μM (aflatoxines production): 100%
% Inhibition of fungal growth at 50 μM (Fusarium graminearum): 81%
Efficacy (Pyrenophora teres): 94%

Cc1c(CCNC(=O)c2c(C(F)F)nn(C)c2Cl)sc2ccccc12 [Example 172]
Efficacy (Alternaria solani): 100%
logP [1]: 3.46
% Inhibition of Aflatoxin at 50 μM (aflatoxines production): 100%
% Inhibition of fungal growth at 50 μM (Fusarium graminearum): 85%
Efficacy (Pyrenophora teres): 100%

Cn1nc(C(F)F)c(C(=O)NCC(C)(C)c2cc(Cl)ccc2Cl)c1F [Example 100]
Efficacy (Alternaria solani): 95%
logP [1]: 3.68
% Inhibition of Aflatoxin at 50 μM (aflatoxines production): 99%
% Inhibition of fungal growth at 50 μM (Fusarium graminearum): 85%
Efficacy (Pyrenophora teres): 94%
